Measured values reported in ChEMBL document CHEMBL5465560, “Selectivity Literature for EUbOPEN Chemogenomic Library” (2024).
Each block holds one molecule with its values, some of them ahead of it.

Columns and labels:
[1] = target: Protein polybromo-1 (Homo sapiens) (UniProt Q86U86); experiment: Selectivity interaction (Human bromodomain panel (DSF assay)) EUB0000233b PBRM1
[2] = target: T1, Calcium/calmodulin-dependent protein kinase type IV (Homo sapiens) (UniProt Q16566); experiment: Selectivity interaction (SelectScreen profiling (Invitrogen)) EUB0000607a CAMK4; settings: at 2 µM
T1 sequence (whole entry): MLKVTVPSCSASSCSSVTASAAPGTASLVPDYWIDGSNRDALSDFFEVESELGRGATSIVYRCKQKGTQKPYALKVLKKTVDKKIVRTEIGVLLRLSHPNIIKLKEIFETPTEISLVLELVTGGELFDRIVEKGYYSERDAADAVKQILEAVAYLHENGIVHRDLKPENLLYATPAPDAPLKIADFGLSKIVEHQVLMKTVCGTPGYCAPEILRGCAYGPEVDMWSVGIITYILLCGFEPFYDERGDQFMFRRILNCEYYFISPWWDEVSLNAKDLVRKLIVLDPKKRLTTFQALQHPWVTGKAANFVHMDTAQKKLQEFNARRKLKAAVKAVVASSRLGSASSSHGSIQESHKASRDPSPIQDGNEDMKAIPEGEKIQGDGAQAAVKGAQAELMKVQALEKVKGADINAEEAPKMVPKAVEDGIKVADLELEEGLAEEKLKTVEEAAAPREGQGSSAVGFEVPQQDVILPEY

[3] = target: Protein kinase C gamma type (Homo sapiens) (UniProt P05129); experiment: Selectivity interaction (ProQinase) EUB0000171b PRKCG
[4] = target: Tyrosine-protein kinase Fes/Fps (Homo sapiens) (UniProt P07332); experiment: Selectivity interaction (KinomeScan (DiscoverX)) EUB0000595a FES; settings: at 10 µM
Sequence of Tyrosine-protein kinase Fes/Fps (Homo sapiens) (P07332 whole entry, the tested form may be a part): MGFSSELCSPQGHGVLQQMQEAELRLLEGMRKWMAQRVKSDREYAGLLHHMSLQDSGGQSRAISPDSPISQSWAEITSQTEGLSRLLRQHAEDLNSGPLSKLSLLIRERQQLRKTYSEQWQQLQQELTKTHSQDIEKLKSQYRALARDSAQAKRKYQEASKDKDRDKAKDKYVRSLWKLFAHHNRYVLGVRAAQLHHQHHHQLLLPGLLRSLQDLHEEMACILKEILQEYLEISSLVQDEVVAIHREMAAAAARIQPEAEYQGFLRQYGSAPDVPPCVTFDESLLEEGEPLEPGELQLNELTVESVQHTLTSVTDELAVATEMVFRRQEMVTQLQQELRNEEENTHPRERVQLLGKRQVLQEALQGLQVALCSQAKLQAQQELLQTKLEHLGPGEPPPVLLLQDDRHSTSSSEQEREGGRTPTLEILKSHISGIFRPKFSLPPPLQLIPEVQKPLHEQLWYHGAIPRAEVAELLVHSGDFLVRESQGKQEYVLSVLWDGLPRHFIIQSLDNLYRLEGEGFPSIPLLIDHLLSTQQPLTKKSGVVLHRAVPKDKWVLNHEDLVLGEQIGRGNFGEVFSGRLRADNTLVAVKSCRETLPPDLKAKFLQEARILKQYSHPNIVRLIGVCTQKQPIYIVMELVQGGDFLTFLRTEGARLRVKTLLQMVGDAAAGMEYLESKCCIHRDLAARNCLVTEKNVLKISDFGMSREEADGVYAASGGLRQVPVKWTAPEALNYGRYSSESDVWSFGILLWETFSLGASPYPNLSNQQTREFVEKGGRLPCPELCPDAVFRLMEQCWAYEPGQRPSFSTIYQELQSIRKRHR

[5] = target: T2, Discoidin domain-containing receptor 2 (Homo sapiens) (UniProt Q16832); experiment: Selectivity interaction (KinomeScan (DiscoverX)) EUB0001049a DDR2; settings: at 1 µM
T2 sequence (whole entry): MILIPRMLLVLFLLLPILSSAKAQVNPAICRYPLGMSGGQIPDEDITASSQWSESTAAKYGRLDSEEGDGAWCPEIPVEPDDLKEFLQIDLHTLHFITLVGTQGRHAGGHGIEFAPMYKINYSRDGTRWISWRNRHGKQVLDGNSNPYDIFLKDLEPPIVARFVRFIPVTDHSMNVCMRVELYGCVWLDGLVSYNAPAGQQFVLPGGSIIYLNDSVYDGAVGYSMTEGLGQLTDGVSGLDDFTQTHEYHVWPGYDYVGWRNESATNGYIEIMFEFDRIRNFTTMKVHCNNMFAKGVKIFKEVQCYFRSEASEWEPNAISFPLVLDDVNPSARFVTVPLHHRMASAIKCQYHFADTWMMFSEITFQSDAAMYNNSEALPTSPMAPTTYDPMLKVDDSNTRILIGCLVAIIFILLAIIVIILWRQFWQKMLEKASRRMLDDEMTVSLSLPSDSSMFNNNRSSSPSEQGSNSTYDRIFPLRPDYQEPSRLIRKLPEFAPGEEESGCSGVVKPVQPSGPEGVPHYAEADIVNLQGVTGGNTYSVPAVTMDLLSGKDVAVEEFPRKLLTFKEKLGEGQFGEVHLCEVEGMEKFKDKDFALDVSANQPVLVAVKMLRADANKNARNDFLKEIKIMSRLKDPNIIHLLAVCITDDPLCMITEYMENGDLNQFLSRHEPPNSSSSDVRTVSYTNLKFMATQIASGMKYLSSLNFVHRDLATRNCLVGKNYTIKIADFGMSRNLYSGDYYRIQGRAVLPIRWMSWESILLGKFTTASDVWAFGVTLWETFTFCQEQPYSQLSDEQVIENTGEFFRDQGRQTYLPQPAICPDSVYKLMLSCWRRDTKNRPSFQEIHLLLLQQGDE

[6] = target: T3, Aurora kinase A (Homo sapiens) (UniProt O14965); experiment: Selectivity interaction (KinomeScan (DiscoverX)) EUB0000655a STK6; settings: at 10 µM
T3 sequence (whole entry): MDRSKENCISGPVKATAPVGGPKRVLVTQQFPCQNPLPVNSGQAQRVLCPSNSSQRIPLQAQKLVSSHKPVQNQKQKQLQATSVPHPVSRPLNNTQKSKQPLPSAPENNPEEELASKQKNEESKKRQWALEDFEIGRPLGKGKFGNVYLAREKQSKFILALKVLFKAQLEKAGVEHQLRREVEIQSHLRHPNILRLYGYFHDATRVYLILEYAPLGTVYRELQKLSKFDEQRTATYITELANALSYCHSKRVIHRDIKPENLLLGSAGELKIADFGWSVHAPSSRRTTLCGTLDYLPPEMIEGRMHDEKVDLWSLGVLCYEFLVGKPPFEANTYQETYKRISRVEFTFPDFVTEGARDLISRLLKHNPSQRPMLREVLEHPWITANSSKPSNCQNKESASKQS

[7] = target: T4, Serine/threonine-protein kinase DCLK1 (Homo sapiens) (UniProt O15075); experiment: Selectivity interaction (KinomeScan (DiscoverX)) EUB0000045b DCLK1
T4 sequence (whole entry): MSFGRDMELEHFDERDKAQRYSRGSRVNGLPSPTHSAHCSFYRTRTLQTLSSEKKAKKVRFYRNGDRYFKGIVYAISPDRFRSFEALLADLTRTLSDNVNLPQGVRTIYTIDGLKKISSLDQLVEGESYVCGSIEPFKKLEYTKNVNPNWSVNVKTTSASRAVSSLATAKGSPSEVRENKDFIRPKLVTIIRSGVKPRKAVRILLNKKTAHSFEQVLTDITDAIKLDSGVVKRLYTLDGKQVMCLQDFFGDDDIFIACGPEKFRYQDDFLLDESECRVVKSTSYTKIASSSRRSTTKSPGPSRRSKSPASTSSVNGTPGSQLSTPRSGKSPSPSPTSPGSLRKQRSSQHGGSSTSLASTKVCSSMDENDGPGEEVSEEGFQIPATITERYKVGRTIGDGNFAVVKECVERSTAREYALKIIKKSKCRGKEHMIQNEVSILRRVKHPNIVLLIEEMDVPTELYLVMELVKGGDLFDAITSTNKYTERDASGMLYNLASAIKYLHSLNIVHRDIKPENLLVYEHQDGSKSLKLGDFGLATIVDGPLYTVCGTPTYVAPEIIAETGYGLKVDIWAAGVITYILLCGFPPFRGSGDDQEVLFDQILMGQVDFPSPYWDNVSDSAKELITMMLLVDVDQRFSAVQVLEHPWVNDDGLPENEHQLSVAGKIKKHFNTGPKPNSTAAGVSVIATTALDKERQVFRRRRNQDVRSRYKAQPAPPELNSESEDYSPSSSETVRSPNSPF

[8] = target: MAP kinase-interacting serine/threonine-protein kinase 2 (Homo sapiens, UniProt Q9HBH9); experiment: Selectivity interaction (KinomeScan (DiscoverX)) EUB0001079a MKNK2; settings: at 1 µM
Sequence of MAP kinase-interacting serine/threonine-protein kinase 2 (Q9HBH9 whole entry, looked up): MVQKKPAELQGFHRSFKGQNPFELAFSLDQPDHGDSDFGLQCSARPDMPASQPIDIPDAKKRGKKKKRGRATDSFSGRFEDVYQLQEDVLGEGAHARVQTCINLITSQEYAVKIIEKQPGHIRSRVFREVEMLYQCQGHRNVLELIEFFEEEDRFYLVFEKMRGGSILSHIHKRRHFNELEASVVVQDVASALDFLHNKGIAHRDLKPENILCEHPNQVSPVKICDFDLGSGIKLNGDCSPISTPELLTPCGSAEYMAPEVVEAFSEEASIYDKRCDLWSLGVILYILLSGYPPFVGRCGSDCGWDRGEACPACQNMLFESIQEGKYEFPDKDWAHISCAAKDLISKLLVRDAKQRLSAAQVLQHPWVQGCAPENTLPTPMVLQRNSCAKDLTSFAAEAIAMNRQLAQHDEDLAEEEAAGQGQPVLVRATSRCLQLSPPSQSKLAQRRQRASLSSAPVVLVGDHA

[9] = target: Dual specificity protein kinase CLK4 (Homo sapiens, UniProt Q9HAZ1); experiment: Selectivity interaction (KinomeScan (DiscoverX)) EUB0000229b CLK4; settings: at 10 µM
Sequence of Dual specificity protein kinase CLK4 (Q9HAZ1 whole entry, looked up): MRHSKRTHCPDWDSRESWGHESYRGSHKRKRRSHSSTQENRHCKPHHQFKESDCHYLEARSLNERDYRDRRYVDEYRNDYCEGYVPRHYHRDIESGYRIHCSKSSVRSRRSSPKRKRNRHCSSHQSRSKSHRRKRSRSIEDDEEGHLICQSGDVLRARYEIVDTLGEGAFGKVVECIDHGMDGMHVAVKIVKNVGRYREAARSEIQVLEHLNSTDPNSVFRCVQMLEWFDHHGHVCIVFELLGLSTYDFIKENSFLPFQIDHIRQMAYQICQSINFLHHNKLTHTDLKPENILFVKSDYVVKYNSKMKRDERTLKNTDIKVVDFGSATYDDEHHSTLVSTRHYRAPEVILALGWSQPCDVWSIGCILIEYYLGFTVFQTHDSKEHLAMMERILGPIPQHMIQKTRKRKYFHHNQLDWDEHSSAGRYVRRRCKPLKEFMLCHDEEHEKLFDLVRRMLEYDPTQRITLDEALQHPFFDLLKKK

Sequence of Protein polybromo-1 (Homo sapiens) (Q86U86 whole entry): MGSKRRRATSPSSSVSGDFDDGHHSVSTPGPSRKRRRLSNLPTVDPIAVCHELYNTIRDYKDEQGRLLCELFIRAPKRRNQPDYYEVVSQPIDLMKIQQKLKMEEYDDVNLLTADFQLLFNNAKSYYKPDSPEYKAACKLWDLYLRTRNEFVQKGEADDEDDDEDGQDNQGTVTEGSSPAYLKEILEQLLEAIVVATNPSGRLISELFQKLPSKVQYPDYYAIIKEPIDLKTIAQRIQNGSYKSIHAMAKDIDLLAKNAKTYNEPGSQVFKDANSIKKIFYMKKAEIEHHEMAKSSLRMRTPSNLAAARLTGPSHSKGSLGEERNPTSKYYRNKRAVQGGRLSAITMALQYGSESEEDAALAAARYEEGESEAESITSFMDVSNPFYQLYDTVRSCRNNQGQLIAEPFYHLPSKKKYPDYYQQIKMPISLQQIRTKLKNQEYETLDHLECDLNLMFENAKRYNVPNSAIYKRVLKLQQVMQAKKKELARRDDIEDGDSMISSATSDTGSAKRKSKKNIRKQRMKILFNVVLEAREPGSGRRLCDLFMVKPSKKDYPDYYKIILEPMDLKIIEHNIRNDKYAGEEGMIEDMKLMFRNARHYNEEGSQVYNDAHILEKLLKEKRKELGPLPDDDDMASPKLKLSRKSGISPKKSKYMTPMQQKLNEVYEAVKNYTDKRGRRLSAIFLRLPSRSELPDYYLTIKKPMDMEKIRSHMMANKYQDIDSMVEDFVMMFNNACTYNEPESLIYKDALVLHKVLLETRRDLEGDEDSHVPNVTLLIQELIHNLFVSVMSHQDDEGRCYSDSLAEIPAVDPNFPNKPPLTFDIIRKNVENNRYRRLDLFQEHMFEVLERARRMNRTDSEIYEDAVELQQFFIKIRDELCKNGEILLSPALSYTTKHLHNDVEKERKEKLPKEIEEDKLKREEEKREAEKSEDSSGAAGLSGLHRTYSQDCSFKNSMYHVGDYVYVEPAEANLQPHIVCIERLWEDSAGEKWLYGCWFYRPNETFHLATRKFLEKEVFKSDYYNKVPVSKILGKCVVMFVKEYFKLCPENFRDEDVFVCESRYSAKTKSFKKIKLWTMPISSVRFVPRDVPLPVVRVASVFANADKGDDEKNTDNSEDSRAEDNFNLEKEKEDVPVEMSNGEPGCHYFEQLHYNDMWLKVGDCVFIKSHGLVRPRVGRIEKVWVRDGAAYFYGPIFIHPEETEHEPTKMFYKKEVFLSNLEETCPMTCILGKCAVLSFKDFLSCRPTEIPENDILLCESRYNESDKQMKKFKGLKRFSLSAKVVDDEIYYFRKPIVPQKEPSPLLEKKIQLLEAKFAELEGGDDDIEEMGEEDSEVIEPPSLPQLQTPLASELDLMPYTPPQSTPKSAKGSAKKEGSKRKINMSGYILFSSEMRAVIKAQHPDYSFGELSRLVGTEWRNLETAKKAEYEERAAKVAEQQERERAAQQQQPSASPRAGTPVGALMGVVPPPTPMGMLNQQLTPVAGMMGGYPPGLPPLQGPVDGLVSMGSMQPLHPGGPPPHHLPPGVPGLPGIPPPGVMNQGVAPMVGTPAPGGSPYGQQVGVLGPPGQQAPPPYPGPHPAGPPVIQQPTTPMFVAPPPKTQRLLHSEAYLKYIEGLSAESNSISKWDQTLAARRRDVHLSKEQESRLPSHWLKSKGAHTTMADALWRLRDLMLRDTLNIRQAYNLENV

dTM [1]: < 2 K
Structure (SMILES): CN(C)CCCOc1ccc(-c2cc(NCCCn3cccn3)nc(S(C)(=O)=O)n2)cc1

Structure (SMILES): CNC(=O)Nc1ccc(-c2nc(N3CC4CCC(C3)O4)c3cnn(C4CCC5(CC4)OCCO5)c3n2)cc1
% of inhibition [2]: -1%

% of control ([3]; at 1 µM): 88%
% of control ([3]; at 5 µM): 100%
Structure (SMILES): C=CC(=O)Nc1cccc(C(=O)Nc2ccc(Nc3cc(-c4[nH]c(SC)nc4C)ccn3)cc2)c1

Structure (SMILES): COCC(=O)NC/C=C/c1ccc2ncnc(Nc3ccc(Oc4ccc(C)nc4)c(C)c3)c2c1 [CP-724714]
% of control [4]: 100%

Structure (SMILES): COc1cc(Nc2nc(C)cc(-c3cnn4nc(OC)ccc34)n2)cc(C(F)(F)F)c1
% of control [5]: 65%

Structure (SMILES): CN(C)CCOc1ccc(-c2nc(-c3ccncc3)c(-c3ccc4c(c3)CC/C4=N\O)[nH]2)cc1
% of control [6]: 90%

Structure (SMILES): C=CC(=O)Nc1cc(-n2c(=O)ccc3cnc4ccc(-c5ccc(NS(C)(=O)=O)cc5)cc4c32)ccc1C
% of control ([7]; at 1 µM): 100%
% of control ([7]; at 10 µM): 84%

Structure (SMILES): Nc1cnc(N2CCc3cc(S(=O)(=O)Nc4c(F)cc(Cl)cc4F)cc(N4CCCC4=O)c32)nc1 [TP-020n]
% of control [8]: 100%

Structure (SMILES): COc1cc(N(C)c2ccnc3ccc(C(F)(F)F)cc23)cc(OC)c1OC
% binding [9]: 88%
